For 27 molecules, IC50 results are on record in patent US10265307B2, “Thiazolecarboxamides and pyridinecarboxamide compounds useful as Pim kinase inhibitors” (Incyte Corporation, priority 2013, dated 2019).

Read-outs that look alike come from different tables or passages of the source.

What all share (assay type): biochemical
Assay [1] has as its target Pim-1 (Homo sapiens (Human), UniProt P11309). As to the kind of experiment: Pim-1 kinase assay. Particulars: 1 mM ATP; read-out: Pim1 IC50. As for the experimental part: Supplementation of the STOP buffer with beads and stopping the reactions were done under reduced light. Prior to the stopping reactions STOP buffer with beads was pre-incubated for 1 h in the dark at room temperature. After stopping the reactions, plates were incubated for 1 h in the dark at room temperature before reading on a PHERAstar FS plate reader (BMG Labtech) under reduced light.

Assay [2] deals with Pim-3 (Homo sapiens (Human), UniProt Q86V86). The experiment in a line: Pim-3 kinase assay. The settings on record: 1 mM ATP; read-out: Pim3 IC50. As for the experimental part: Pim-1 and Pim-3 kinase assays-20 μL reactions were run in white 384 well polystyrene plates dotted with 0.8 μL compound/DMSO in the assay buffer (50 mM Tris, pH 7.5, 0.01% Tween-20, 5 mM MgCl2, 0.01% BSA, 5 mM DTT), containing 0.05 μM Biotin-labeled BAD peptide substrate (AnaSpec 62269), 1 mM ATP, and […] (Pim-1, Invitrogen PV3503) or […] (Pim-3, Millipore 14-738) enzyme for 1 h at 25° C. Reactions were stopped by addition of 10 μL STOP Buffer (150 mM Tris, pH=7.5, 150 mM NaCl, 75 mM EDTA, 0.01% Tween-20, 0.3% BSA) supplemented with Phospho-Bad (Ser112) Antibody (Cell Signaling 9291) diluted 666-fold, and Streptavidin donor beads (PerkinElmer 6760002) along with Protein-A acceptor beads (PerkinElmer 6760137) at 15 μg/mL each. Supplementation of the STOP buffer with beads and stopping the reactions were done under reduced light. Prior to the stopping reactions STOP buffer with beads was pre-incubated for 1 h in the dark at room temperature. After stopping the reactions, plates were incubated for 1 h in the dark at room temperature before reading on a PHERAstar FS plate reader (BMG Labtech) under reduced light.

Assay [3] addresses Pim-2 (Homo sapiens (Human), UniProt Q9P1W9). As to the kind of experiment: Pim-2 kinase assay. As for the experimental part:
Pim-2 kinase assay-20 μL reactions were run in white 384 well polystyrene plates dotted with 0.8 μL compound/DMSO in the assay buffer (50 mM Tris, pH 7.5, 0.01% Tween-20, 5 mM MgCl2, 0.01% BSA, 5 mM DTT), containing 0.05 μM Fluorescein-labeled CREBtide peptide substrate (Invitrogen PV3508), 1 mM ATP, and 1 nM enzyme (Invitrogen PV3649) for 2 h at 25° C. Reactions were stopped by addition of 10 μL TR-FRET Dilution Buffer (Invitrogen PV3574) with 30 mM EDTA and 1.5 nM LanthaScreen Tb-CREB pSer133 antibody (Invitrogen PV3566). After 30 min. incubation at room temperature, plates were read on a PHERAstar FS plate reader (BMG Labtech).
Although the above in vitro assays are conducted at 1 mM ATP compounds can also be evaluated for potency and in vitro activity against PIM targets utilizing Km conditions, where the concentration of ATP is set to the Km value and the assay is more sensitive to PIM inhibition activity.

Pim-2, sequence (Q9P1W9 whole entry): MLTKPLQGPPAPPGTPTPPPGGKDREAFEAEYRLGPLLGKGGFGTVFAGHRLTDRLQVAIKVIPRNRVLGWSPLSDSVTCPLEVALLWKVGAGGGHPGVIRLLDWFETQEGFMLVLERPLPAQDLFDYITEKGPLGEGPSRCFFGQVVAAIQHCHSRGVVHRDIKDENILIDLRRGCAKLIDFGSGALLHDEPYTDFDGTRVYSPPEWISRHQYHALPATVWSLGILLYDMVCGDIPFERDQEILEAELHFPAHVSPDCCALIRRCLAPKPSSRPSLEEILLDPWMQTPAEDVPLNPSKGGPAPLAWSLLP
Pim-1, sequence (P11309 whole entry): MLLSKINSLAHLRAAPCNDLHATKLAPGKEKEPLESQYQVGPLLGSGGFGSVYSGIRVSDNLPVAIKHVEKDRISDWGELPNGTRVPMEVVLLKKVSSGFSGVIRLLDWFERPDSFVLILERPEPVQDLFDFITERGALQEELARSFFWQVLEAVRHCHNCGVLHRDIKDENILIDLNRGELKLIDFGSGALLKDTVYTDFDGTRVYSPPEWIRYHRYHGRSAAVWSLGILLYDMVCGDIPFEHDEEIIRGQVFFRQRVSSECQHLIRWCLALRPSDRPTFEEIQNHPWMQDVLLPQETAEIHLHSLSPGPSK

`C[C@H]1CN(c2c(NC(=O)c3ccc(F)c(-c4c(F)cccc4F)n3)cnc3c2CCC3O)C[C@@H](N)[C@@H]1O` (mixture of isomers) [Example 37, N-{4-[(3R,4R,5S)-3-Amino-4-hydroxy-5-methylpiperidin-1-yl]-7-hydroxy-6,7-dihydro-5H-cyclopenta[b]pyridin-3-yl}-6-(2,6-difluorophenyl)-5-fluoropyridine-2-carboxamide]: the IC50 is at most 100 nM in assay [1]; at most 100 nM in assay [2]; at most 100 nM in assay [3] (1 mM ATP, read-out: Pim2 IC50).
Regarding `Nc1sc(-c2c(F)cccc2F)nc1C(=O)Nc1cnc2c(c1N1CCC[C@H](N)C1)CCC2O` (single isomer, unassigned) [15 (Diastereoisomer 1)], the IC50 in assay [1] was at most 100 nM; in assay [2], at most 100 nM; in assay [3] (1 mM ATP, read-out: Pim2 IC50), at most 100 nM.
As to `Nc1sc(-c2c(F)cccc2F)nc1C(=O)Nc1cnc2c(c1N1CCC[C@H](N)C1)CCC2O` (single isomer, unassigned) [15 (Diastereoisomer 2)], the IC50 is at most 100 nM in assay [1]; at most 100 nM in assay [2]; at most 100 nM in assay [3] (1 mM ATP, read-out: Pim2 IC50).
Consider `N[C@H]1CCCN(c2c(NC(=O)c3csc(-c4c(F)cccc4F)n3)cnc3c2CCC3O)C1` (single isomer, unassigned) [16 (Diastereoisomer 1)], for which the IC50 is at most 100 nM in assay [1]; at most 100 nM in assay [2]; over 2000 nM in assay [3] (1 mM ATP, read-out: Pim2 IC50).
For `N[C@H]1CCCN(c2c(NC(=O)c3csc(-c4c(F)cccc4F)n3)cnc3c2CCC3O)C1` (single isomer, unassigned) [16 (Diastereoisomer 2)], the IC50 in assay [1] was at most 100 nM; in assay [2], at most 100 nM; in assay [3] (1 mM ATP, read-out: Pim2 IC50), over 2000 nM.
For `N#CC1CCc2c1ncc(NC(=O)c1nc(-c3c(F)cccc3F)sc1N)c2N1CCC[C@H](N)C1` (single isomer, unassigned) [18 (Diastereoisomer 1)], the IC50 was at most 100 nM in assay [1]; at most 100 nM in assay [2]; 100 to 1000 nM in assay [3] (1 mM ATP, read-out: Pim2 IC50).
`N#CC1CCc2c1ncc(NC(=O)c1nc(-c3c(F)cccc3F)sc1N)c2N1CCC[C@H](N)C1` (single isomer, unassigned) [18 (Diastereoisomer 2)]: the IC50 was at most 100 nM in assay [1]; at most 100 nM in assay [2]; 100 to 1000 nM in assay [3] (1 mM ATP, read-out: Pim2 IC50).
In the case of `CC1(O)CCc2c1ncc(NC(=O)c1nc(-c3c(F)cccc3F)sc1N)c2N1CCC[C@H](N)C1` (single isomer, unassigned) [19 (Diastereoisomer 1)], the IC50 in assay [1] is at most 100 nM; in assay [2], 100 to 1000 nM; in assay [3] (1 mM ATP, read-out: Pim2 IC50), over 2000 nM.
Taken in the same sequence, the figures for `CC1(O)CCc2c1ncc(NC(=O)c1nc(-c3c(F)cccc3F)sc1N)c2N1CCC[C@H](N)C1` (single isomer, unassigned) [19 (Diastereoisomer 2)] were at most 100 nM, at most 100 nM and 100 to 1000 nM.
The matching figures for `N[C@H]1CCCN(c2c(NC(=O)c3ccc(F)c(-c4c(F)cccc4F)n3)cnc3c2CCC3O)C1` (single isomer, unassigned) [22 (Diastereoisomer 1)]: at most 100 nM, at most 100 nM and 100 to 1000 nM.
Regarding `N[C@H]1CCCN(c2c(NC(=O)c3ccc(F)c(-c4c(F)cccc4F)n3)cnc3c2CCC3O)C1` (single isomer, unassigned) [22 (Diastereoisomer 2)], the IC50 is at most 100 nM in assay [1]; at most 100 nM in assay [2]; at most 100 nM in assay [3] (1 mM ATP, read-out: Pim2 IC50).
Consider `Nc1cc(F)c(-c2c(F)cccc2F)nc1C(=O)Nc1cnc2c(c1N1CCC[C@H](N)C1)CCC2O` (single isomer, unassigned) [23 (Diastereoisomer 1)], for which the IC50 in assay [1] is at most 100 nM; in assay [2] it was at most 100 nM; in assay [3] (1 mM ATP, read-out: Pim2 IC50), at most 100 nM.
On to `Nc1cc(F)c(-c2c(F)cccc2F)nc1C(=O)Nc1cnc2c(c1N1CCC[C@H](N)C1)CCC2O` (single isomer, unassigned) [23 (Diastereoisomer 2)], for which the IC50 is at most 100 nM in assay [1]; at most 100 nM in assay [2]; at most 100 nM in assay [3] (1 mM ATP, read-out: Pim2 IC50).
As for `C[C@H]1CN(c2c(NC(=O)c3ccc(F)c(-c4c(F)cccc4F)n3)cnc3c2CCC3O)C[C@@H](N)[C@@H]1O` (single isomer, unassigned) [37 (Diastereoisomer 1)], the IC50 in assay [1] is at most 100 nM; in assay [2], at most 100 nM; in assay [3] (1 mM ATP, read-out: Pim2 IC50), at most 100 nM.
Regarding `C[C@H]1CN(c2c(NC(=O)c3ccc(F)c(-c4c(F)cccc4F)n3)cnc3c2CCC3O)C[C@@H](N)[C@@H]1O` (single isomer, unassigned) [37 (Diastereoisomer 2)], the IC50 is at most 100 nM in assay [1]; at most 100 nM in assay [2]; at most 100 nM in assay [3] (1 mM ATP, read-out: Pim2 IC50).
With `Nc1sc(-c2c(F)cccc2F)nc1C(=O)Nc1cnc2c(c1N1C[C@@H](N)C[C@@H](C(F)(F)F)C1)CCC2O` (single isomer, unassigned) [44 (Diastereoisomer 1)], the IC50 was at most 100 nM in assay [1]; at most 100 nM in assay [2]; at most 100 nM in assay [3] (1 mM ATP, read-out: Pim2 IC50).
Take `Nc1sc(-c2c(F)cccc2F)nc1C(=O)Nc1cnc2c(c1N1C[C@@H](N)C[C@@H](C(F)(F)F)C1)CCC2O` (single isomer, unassigned) [44 (Diastereoisomer 2)]: the IC50 is at most 100 nM in assay [1]; at most 100 nM in assay [2]; at most 100 nM in assay [3] (1 mM ATP, read-out: Pim2 IC50).
On to `C[C@@H]1C[C@H](N)CN(c2c(NC(=O)c3ccc(F)c(-c4c(F)cccc4F)n3)cnc3c2CCC3O)C1` (single isomer, unassigned) [45 (Diastereoisomer 1)], for which the IC50 is at most 100 nM in assay [1]; at most 100 nM in assay [2]; at most 100 nM in assay [3] (1 mM ATP, read-out: Pim2 IC50).
Consider `C[C@@H]1C[C@H](N)CN(c2c(NC(=O)c3ccc(F)c(-c4c(F)cccc4F)n3)cnc3c2CCC3O)C1` (single isomer, unassigned) [45 (Diastereoisomer 2)], for which the IC50 in assay [1] was at most 100 nM; in assay [2] it was at most 100 nM; in assay [3] (1 mM ATP, read-out: Pim2 IC50) it was at most 100 nM.
On to `C[C@@H]1C[C@H](N)CN(c2c(NC(=O)c3nc(-c4c(F)cccc4F)c(F)cc3N)cnc3c2CCC3O)C1` (single isomer, unassigned) [46 (Diastereoisomer 1)], for which the IC50 in assay [1] is at most 100 nM; in assay [2], at most 100 nM; in assay [3] (1 mM ATP, read-out: Pim2 IC50), at most 100 nM.
Take `C[C@@H]1C[C@H](N)CN(c2c(NC(=O)c3nc(-c4c(F)cccc4F)c(F)cc3N)cnc3c2CCC3O)C1` (single isomer, unassigned) [46 (Diastereoisomer 2)]: the IC50 in assay [1] was at most 100 nM; in assay [2], at most 100 nM; in assay [3] (1 mM ATP, read-out: Pim2 IC50) it was at most 100 nM.
As for `C[C@@H]1C[C@H](N)CN(c2c(NC(=O)c3nc(-c4c(F)cccc4F)sc3N)cnc3c2CCC3O)C1` (single isomer, unassigned) [47 (Diastereoisomer 1)], the IC50 in assay [1] is at most 100 nM; in assay [2] it was at most 100 nM; in assay [3] (1 mM ATP, read-out: Pim2 IC50), at most 100 nM.
Turning to `C[C@@H]1C[C@H](N)CN(c2c(NC(=O)c3nc(-c4c(F)cccc4F)sc3N)cnc3c2CCC3O)C1` (single isomer, unassigned) [47 (Diastereoisomer 2)], the IC50 was at most 100 nM in assay [1]; at most 100 nM in assay [2]; at most 100 nM in assay [3] (1 mM ATP, read-out: Pim2 IC50).
As to `C[C@H]1CN(c2c(NC(=O)c3nc(-c4c(F)cccc4F)c(F)cc3N)cnc3c2CCC3O)C[C@@H](N)[C@@H]1O` (single isomer, unassigned) [48 (Diastereoisomer 1)], the IC50 is at most 100 nM in assay [1]; at most 100 nM in assay [2]; 100 to 1000 nM in assay [3] (1 mM ATP, read-out: Pim2 IC50).
On to `C[C@H]1CN(c2c(NC(=O)c3nc(-c4c(F)cccc4F)c(F)cc3N)cnc3c2CCC3O)C[C@@H](N)[C@@H]1O` (single isomer, unassigned) [48 (Diastereoisomer 2)], for which the IC50 in assay [1] is at most 100 nM; in assay [2] it was at most 100 nM; in assay [3] (1 mM ATP, read-out: Pim2 IC50), at most 100 nM.
Regarding `C[C@H]1CN(c2c(NC(=O)c3nc(-c4c(F)cccc4F)sc3N)cnc3c2CCC3O)C[C@@H](N)[C@@H]1O` (single isomer, unassigned) [49 (Diastereoisomer 1)], the IC50 in assay [1] was at most 100 nM; in assay [2], at most 100 nM; in assay [3] (1 mM ATP, read-out: Pim2 IC50) it was at most 100 nM.
With `N[C@H]1CCCN(c2c(NC(=O)c3csc(-c4c(F)cccc4F)n3)cnc3[nH]ncc23)C1` [compound 35], the IC50 in assay [3] (Km ATP concentration rather than 1 mM, read-out: Pim2 IC50 at Km ATP concentration) fell in the range of 1000 to 10000 nM.
